Source: patent publication US20250282754A1, “BICYCLIC COMPOUNDS AND THEIR USE AS PEST CONTROL AGENTS” (Pl Industries Ltd., priority 2022, published 2025)

Columns and labels:
Assay type in all cases: in vivo
Myzus persicae = Myzus persicae leaf dip test (capsicum leaves, third instar nymphs); details: foliar, dead and moribund third instar nymphs 72 h after release, compared to untreated controls, read-out: percent mortality
Method: The leaf dip method was used for testing, wherein the required quantity of the compound was weighed and dissolved in a tube containing a solvent solution. The tube was put on a vortex at 2000 rpm for proper mixing and then diluted with a 0.01% Triton-X solution to the desired test concentration. Capsicum leaves were dipped in the compound solution for 10 seconds, shade dried for 20 min and then placed, with the abaxial side of the leaf up, in single cells of a bio-assay tray containing 4 ml of a solidified 1% agar-agar solution. Known numbers of third instar nymphs of Myzus persicae, collected in petri plates, were released into the cell with the treated leaf and the cell was covered with a perforated lid for better aeration. The trays were kept in a plant growth chamber at a temperature of 25° C. and a relative humidity of 70%. Observations on dead, moribund and alive nymphs were recorded 72 h after the release. Percent mortality was calculated by combining dead and moribund nymphs and comparing the result with the one of the untreated controls. The compounds

Nilaparvata lugens = Nilaparvata lugens seedling dip test (paddy seedlings, third instar nymphs); details: dead and moribund third instar nymphs 72 h after release, compared to untreated controls, read-out: percent mortality
Procedure, shortened: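 Paddy seedlings dipped 10 s in compound diluted with 0.01% Triton-X, shade dried, then infested with 15 third-instar nymphs at 25 °C, 75% RH. Mortality (dead plus moribund) scored at 72 h relative to untreated controls.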

Bemisia tabaci = Bemisia tabaci leaf dip test (brinjal leaves, whitefly adults); details: foliar, dead and moribund whitefly adults 72 h after release, compared to untreated controls, read-out: percent mortality
Procedure, shortened: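 Brinjal leaves were dipped 10 s in compound diluted in 0.01% Triton-X, dried, and placed on agar, then exposed to freshly emerged whitefly adults at 25° C, 70% RH. Dead plus moribund adults were counted at 72 h, and percent mortality was calculated relative to untreated controls.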

| Structure (SMILES) | mortality at 300 ppm (Myzus persicae) [%] | mortality at 300 ppm (Nilaparvata lugens) [%] | mortality at 300 ppm (Bemisia tabaci) [%] |
| --- | --- | --- | --- |
| COc1nn(-c2ccc3nn(-c4cncc(F)c4)cc3c2)c(=O)n1C [Compound 112, 2-(2-(5-fluoropyridin-3-yl)-2H-indazol-5-yl)-5-methoxy-4-methyl-2,4-dihydro-3H-1,2,4-triazol-3-one] | ≥ 70 | ≥ 70 |  |
| CC(C)S(=O)(=NC1CC1)c1ccc2nn(-c3cccnc3)cc2c1 (centres unmarked) [Compound 406] | ≥ 70 | ≥ 70 | ≥ 70 |
| CCS(C)(=O)=Nc1cnc2nn(-c3cccnc3)cc2c1 (centres unmarked) [Compound 147] | ≥ 70 | ≥ 70 |  |
| CCCS(=O)(CC)=Nc1ccc2nn(-c3cccnc3)cc2c1 (centres unmarked) [Compound 137] | ≥ 70 | ≥ 70 |  |
| CCN=S(=O)(CC1CC1)c1ccc2nn(-c3cccnc3)cc2c1 (centres unmarked) [Compound 388] | ≥ 70 | ≥ 70 |  |
| CCS(C)(=O)=Nc1ccc2nn(-c3cccnc3)cc2c1 (centres unmarked) [Compound 2] | ≥ 70 | ≥ 70 |  |
| CCS(=O)(=Nc1ccc2nn(-c3cccnc3)cc2c1)C(C)C (centres unmarked) [Compound 29] | ≥ 70 | ≥ 70 | ≥ 70 |
| CCS(=O)(CC)=Nc1cccc2nn(-c3cccnc3)cc12 [Compound 73] | ≥ 70 | ≥ 70 | ≥ 70 |
| CCN=S(=O)(CC)c1ccc2nn(-c3cncc(F)c3)cc2c1 (centres unmarked) [Compound 461] | ≥ 70 | ≥ 70 | ≥ 70 |
| CS(C)(=O)=Nc1ccc2nn(-c3cccnc3)cc2c1 [Compound 1] | ≥ 70 | ≥ 70 | ≥ 70 |
| O=S(CCC(F)(F)F)(=Nc1ccc2nn(-c3cncnc3)cc2c1)c1ccc(F)cc1 (centres unmarked) [Compound 64] | ≥ 70 | ≥ 70 |  |
| CCS(=N)(=O)c1ccc2nn(-c3cccnc3)cc2c1 (centres unmarked) [Compound 387, ethyl(imino)(2-(pyridin-3-yl)-2H-indazol-5-yl)-λ^6-sulfanone] | ≥ 70 | ≥ 70 | ≥ 70 |
| CCN=S(=O)(c1ccc2nn(-c3cncnc3)cc2c1)C(C)C (centres unmarked) [Compound 419] | ≥ 70 | ≥ 70 | ≥ 70 |
| CCS(=O)(=Nc1ccc2nn(-c3cncnc3)cc2c1)C(C)C (centres unmarked) [Compound 32] | ≥ 70 | ≥ 70 | ≥ 70 |
| CS(C)(=O)=Nc1cnc2nn(-c3cccnc3)cc2c1 [Compound 146] | ≥ 70 | ≥ 70 |  |
| CCN=S(=O)(CC)c1ccc2nn(-c3cncnc3)cc2c1 (centres unmarked) [Compound 457] | ≥ 70 | ≥ 70 | ≥ 70 |
| CCS(=O)(=Nc1ccc2nn(-c3cccnc3)cc2n1)C(C)C (centres unmarked) [Compound 240] | ≥ 70 | ≥ 70 | ≥ 70 |
| N=S(=O)(CC1CC1)c1ccc2nn(-c3cccnc3)cc2c1 (centres unmarked) [Compound 386, (cyclopropylmethyl)(imino)(2-(pyridin-3-yl)-2H-indazol-5-yl)-λ^6-sulfanone] | ≥ 70 | ≥ 70 | ≥ 70 |
| COc1nn(-c2ccc3nn(-c4cccnc4)cc3c2)c(=O)n1Cc1ccc(Cl)cc1 [Compound 354, 4-(4-chlorobenzyl)-5-methoxy-2-(2-(pyridin-3-yl)-2H-indazol-5-yl)-2,4-dihydro-3H-1,2,4-triazol-3-one] | ≥ 70 | ≥ 70 | ≥ 70 |
| CCC(C)S(=O)(=Nc1ccc2nn(-c3cccnc3)cc2n1)C(C)C (centres unmarked) [Compound 287] | ≥ 70 |  | ≥ 70 |
| CCS(=N)(=O)c1ccc2nn(-c3cncnc3)cc2c1 (centres unmarked) [Compound 455, ethyl(imino)(2-(pyrimidin-5-yl)-2H-indazol-5-yl)-λ^6-sulfanone] | ≥ 70 |  | ≥ 70 |
| CCS(=O)(CC)=Nc1ccc2nn(-c3cccnc3)cc2c1 [Compound 3] | ≥ 70 | ≥ 70 |  |

| Structure (SMILES) | mortality at 300 ppm (Myzus persicae) [%] | mortality at 300 ppm (Nilaparvata lugens) [%] | mortality at 300 ppm (Bemisia tabaci) [%] |
| --- | --- | --- | --- |
| CS(=O)(=Nc1ccc2nn(-c3cccnc3)cc2n1)C1CCCCC1 (centres unmarked) [Compound 216] | ≥ 70 |  | ≥ 70 |
| CCN=S(=O)(c1ccc2nn(-c3cccnc3)cc2c1)C(C)C (centres unmarked) [Compound 383] | ≥ 70 |  | ≥ 70 |
| N=S(=O)(CC(F)(F)F)c1ccc2nn(-c3cncnc3)cc2c1 (centres unmarked) [Compound 458, imino(2-(pyrimidin-5-yl)-2H-indazol-5-yl)(2,2,2-trifluoroethyl)-λ^6-sulfanone] | ≥ 70 |  | ≥ 70 |
| CCN=S(=O)(c1ccc2nn(-c3cncc(F)c3)cc2c1)C(C)C (centres unmarked) [Compound 397] | ≥ 70 | ≥ 70 | ≥ 70 |
| CS(C)(=O)=NC(=O)c1cccc2nn(-c3cccnc3)cc12 [Compound 92, N-(dimethyl(oxo)-λ^6-sulfaneylidene)-2-(pyridin-3-yl)-2H-indazole-4-carboxamide] | ≥ 70 | ≥ 70 |  |
| N=S(=O)(CCCF)c1ccc2nn(-c3cncc(F)c3)cc2c1 (centres unmarked) [Compound 482, (3-fluoropropyl)(2-(5-fluoropyridin-3-yl)-2H-indazol-5-yl)(imino)-λ^6-sulfanone] | ≥ 70 |  | ≥ 70 |
| CC(=O)N=S(=O)(c1ccc2nn(-c3cccnc3)cc2c1)C(C)C (centres unmarked) [Compound 389] | ≥ 70 | ≥ 70 | ≥ 70 |
| COc1nn(-c2ccc3nn(-c4cncnc4)cc3c2)c(=O)n1C [Compound 119, 5-methoxy-4-methyl-2-(2-(pyrimidin-5-yl)-2H-indazol-5-yl)-2,4-dihydro-3H-1,2,4-triazol-3-one] | ≥ 70 |  | ≥ 70 |
| CCC(CC)S(=N)(=O)c1ccc2nn(-c3cncc(F)c3)cc2c1 (centres unmarked) [Compound 480, (2-(5-fluoropyridin-3-yl)-2H-indazol-5-yl)(imino)(pentan-3-yl)-λ^6-sulfanone] | ≥ 70 |  | ≥ 70 |
| CC(C)S(=O)(=Nc1ccc2nn(-c3cccnc3)cc2c1)C(C)C [Compound 28] | ≥ 70 | ≥ 70 | ≥ 70 |
| CCOc1nn(-c2ccc3nn(-c4cccnc4)cc3c2)c(=O)n1Cc1ccc(F)cc1 [Compound 337, 5-ethoxy-4-(4-fluorobenzyl)-2-(2-(pyridin-3-yl)-2H-indazol-5-yl)-2,4-dihydro-3H-1,2,4-triazol-3-one] | ≥ 70 | ≥ 70 | ≥ 70 |
| CCS(=O)(=Nc1cnc2nn(-c3cccnc3)cc2c1)C(C)C (centres unmarked) [Compound 148] | ≥ 70 | ≥ 70 |  |
| CC(C)CS(=N)(=O)c1ccc2nn(-c3cccnc3)cc2c1 (centres unmarked) [Compound 557, imino(isobutyl)(2-(pyridin-3-yl)-2H-indazol-5-yl)-λ^6-sulfanone] | ≥ 70 |  | ≥ 70 |
| CC(C)S(C)(=O)=Nc1ccc(Cl)c2nn(-c3cccnc3)cc12 (centres unmarked) [Compound 218] | ≥ 70 |  | ≥ 70 |
| CCCS(=N)(=O)c1ccc2nn(-c3cncc(F)c3)cc2c1 (centres unmarked) [Compound 478, (2-(5-fluoropyridin-3-yl)-2H-indazol-5-yl)(imino)(propyl)-λ^6-sulfanone] | ≥ 70 |  | ≥ 70 |
| COCCS(C)(=O)=Nc1ccc2nn(-c3cccnc3)cc2n1 (centres unmarked) [Compound 236] | ≥ 70 | ≥ 70 | ≥ 70 |
| CCS(=O)(CC)=Nc1ccc2nn(-c3cccnc3)cc2n1 [Compound 249] | ≥ 70 |  | ≥ 70 |
| CCC(C)S(=O)(=Nc1ccc2nn(-c3cccnc3)cc2c1)C(C)C (centres unmarked) [Compound 291] | ≥ 70 |  | ≥ 70 |
| CCn1c(OC)nn(-c2ccc3nn(-c4cccnc4)cc3c2)c1=O [Compound 123, 4-ethyl-5-methoxy-2-(2-(pyridin-3-yl)-2H-indazol-5-yl)-2,4-dihydro-3H-1,2,4-triazol-3-one] | ≥ 70 |  | ≥ 70 |
| CC(C)S(C)(=O)=Nc1ccc2nn(-c3cccnc3)cc2n1 (centres unmarked) [Compound 238] | ≥ 70 | ≥ 70 | ≥ 70 |
| CCS(=O)(=Nc1ccc2nn(-c3cncc(F)c3)cc2c1)C(C)C (centres unmarked) [Compound 41] | ≥ 70 | ≥ 70 |  |
| CCS(=O)(=Nc1cccc2nn(-c3cccnc3)cc12)C(C)C (centres unmarked) [Compound 71] | ≥ 70 | ≥ 70 | ≥ 70 |
